Patent US12491180B2, “Application of compound in treating pneumonia” (SHENZHEN OPTIMUM BIOLOGICAL TECHNOLOGY CO., LTD., priority 2019, dated 2025)
Values after ≈ are worked out from the molar mass of the structure shown.

How the values were obtained:
Assay in all cases: MIC, solid dilution method
[1] = system: Enterobacter aerogenes 8193; format: cell-based; details: Klebsiella aerogenes; E. ae 8193, CRE clinical isolate; MHA agar, 37° C., 16-20 hours; read-out: MIC
Description: CRE Enterobacter aerogenes 8193, a total of 1 strain;
(§1) The above-mentioned glycerol-preserved strains were taken out from the −80° C. refrigerator, streaked and inoculated on MHA plates, labeled, and cultured overnight in a 37° C. incubator.
(§2) The inoculum was prepared directly from bacterial suspension, and several recovered colonies were picked and directly prepared into a bacterial suspension with a turbidity of No. 0.5 McFarland units in normal saline, and a 10-fold dilution was made during inoculation.
(§3) 6 bottles of MHA culture medium 500 mL/bottle were prepared, and the pH was adjusted to 7.2-7.4, sterilized at 121° C. for 15 min, and the medium was placed in a 55° C. water bath to keep warm.
(§4) Sterile blank petri dishes were taken, and marked with each FL drug/concentration according to 2-fold dilution, and 10 concentrations of each drug starting from 8 μg/mL were tested.
(§5) […]; 20 mL was aspirated and added to a petri dish consistent with the mark, and then 20 mL of MHA culture medium was added to the rest of the drug-containing culture medium, mixed evenly, that is, the 2-fold diluted drug-containing culture medium; 20 mL was aspirated and added to the petri dish consistent with the mark, and then diluted to the 10th concentration and the […] respectively by repeating the above-mentioned steps, and then poured into the petri dish.
(§6) 4 bacterial control petri dishes without drug were prepared at the same time as a control.
(§7) The positioning needle and the inoculation needle were installed according to the order of placement of the colony on the inoculation plate. After inoculation, a bacterial solution circle was formed on the petri dish. After the bacterial solution was absorbed by the agar, the petri dish was placed in an incubator at 37° C. for overnight incubation (16-20 hours), and then taken out.
(§8) The minimum inhibitory concentrations of the compounds against the CRE and CSE strains were determined by the solid dilution method, and the results are shown in Tables 3 and 4.

[2] = system: Klebsiella pneumoniae 12559; format: cell-based; details: K.p 12559, CRE clinical isolate, MHA agar, 37° C., 16-20 hours, read-out: MIC
Description: (§9) (2) Clinical isolated strains: CRE Klebsiella pneumoniae 5846, 11544, 12559, 13249 and CSE Klebsiella pneumoniae 8733, a total of 5 strains;
as §1, §2, §3, §4, §5, §6, §7, §8

[3] = system: Klebsiella pneumoniae 8733; format: cell-based; details: K.p 8733, CSE clinical isolate, MHA agar, 37° C., 16-20 hours, read-out: MIC
Description: as §9, §1, §2, §3, §4, §5, §6, §7, §8

[4] = system: Klebsiella pneumoniae 11544; format: cell-based; details: K.p 11544, CRE clinical isolate, MHA agar, 37° C., 16-20 hours, read-out: MIC
Description: as §9, §1, §2, §3, §4, §5, §6, §7, §8

[5] = system: Klebsiella pneumoniae 5846; format: cell-based; details: K.p 5846, CRE clinical isolate, MHA agar, 37° C., 16-20 hours, read-out: MIC
Description: as §9, §1, §2, §3, §4, §5, §6, §7, §8

[6] = system: Klebsiella pneumoniae 13249; format: cell-based; details: K.p 13249, CRE clinical isolate, MHA agar, 37° C., 16-20 hours, read-out: MIC
Description: as §9, §1, §2, §3, §4, §5, §6, §7, §8

[7] = system: Citrobacter freundii 9434; format: cell-based; details: C.f 9434, CRE clinical isolate, MHA agar, 37° C., 16-20 hours, read-out: MIC
Description: (§10) CRE Citrobacter freundii 9434, 9484 and CSE Citrobacter freundii 7646, a total of 3 strains;
as §1, §2, §3, §4, §5, §6, §7, §8

[8] = system: Citrobacter freundii 9484; format: cell-based; details: C.f 9484, CRE clinical isolate, MHA agar, 37° C., 16-20 hours, read-out: MIC
Description: as §10, §1, §2, §3, §4, §5, §6, §7, §8

[9] = system: Citrobacter freundii 7646; format: cell-based; details: C.f 7646, CSE clinical isolate, MHA agar, 37° C., 16-20 hours, read-out: MIC
Description: as §10, §1, §2, §3, §4, §5, §6, §7, §8

[10] = system: Enterobacter cloacae 11699; format: cell-based; details: E. cl 11699, CSE clinical isolate, MHA agar, 37° C., 16-20 hours, read-out: MIC
Description: as §1, §2, §4, §6, §7

[11] = system: Enterobacter cloacae 11090; format: cell-based; details: E. cl 11090, CRE clinical isolate, MHA agar, 37° C., 16-20 hours, read-out: MIC
Description: as §1, §2, §4, §6, §7

[12] = system: Enterobacter cloacae 14653; format: cell-based; details: E. cl 14653, CRE clinical isolate, MHA agar, 37° C., 16-20 hours, read-out: MIC
Description: as §1, §2, §4, §6, §7

E. coli 11256 = format: cell-based; details: Escherichia coli; E. coli 11256; MHA agar, 37° C., 16-20 hours; read-out: MIC
Description: as §1, §2, §3, §4, §5, §6, §7, §8

Escherichia coli 13897 = format: cell-based; details: E. coli 13897, CRE clinical isolate, MHA agar, 37° C., 16-20 hours, read-out: MIC
Description: as §1, §2, §3, §4, §5, §6, §7, §8

Escherichia coli 11119 = format: cell-based; details: E. coli 11119, CRE clinical isolate, MHA agar, 37° C., 16-20 hours, read-out: MIC
Description: as §1, §2, §3, §4, §5, §6, §7, §8

Escherichia coli 14828 = format: cell-based; details: E. coli 14828, CRE clinical isolate, MHA agar, 37° C., 16-20 hours, read-out: MIC
Description: as §1, §2, §3, §4, §5, §6, §7, §8

Klebsiella oxytoca 14153 = format: cell-based; details: K. ox 14153, CRE clinical isolate, MHA agar, 37° C., 16-20 hours, read-out: MIC
Description: as §1, §2, §3, §4, §5, §6, §7, §8

Klebsiella oxytoca 12391 = format: cell-based; details: K. ox 12391, CRE clinical isolate, MHA agar, 37° C., 16-20 hours, read-out: MIC
Description: as §1, §2, §3, §4, §5, §6, §7, §8

Klebsiella oxytoca 14151 = format: cell-based; details: K. ox 14151, CRE clinical isolate, MHA agar, 37° C., 16-20 hours, read-out: MIC
Description: as §1, §2, §3, §4, §5, §6, §7, §8

Klebsiella oxytoca 6777 = format: cell-based; details: K. ox 6777, CRE clinical isolate, MHA agar, 37° C., 16-20 hours, read-out: MIC
Description: as §1, §2, §3, §4, §5, §6, §7, §8

E. ae 14186 = format: cell-based, Enterobacter aerogenes; details: Klebsiella aerogenes; E. ae 14186; MHA agar, 37° C., 16-20 hours; read-out: MIC
Description: as §1, §2, §3, §4, §5, §6, §7, §8

MIC [2] [µg/mL]	MIC [3] [µg/mL]	MIC [4] [µg/mL]	MIC [5] [µg/mL]	MIC [6] [µg/mL]	MIC [7] [µg/mL]	MIC [8] [µg/mL]	MIC [9] [µg/mL]	MIC [10] [µg/mL]	MIC [11] [µg/mL]	MIC [12] [µg/mL]	MIC (E. coli 11256) [µg/mL]	MIC (Escherichia coli 13897) [µg/mL]	MIC (Escherichia coli 11119) [µg/mL]	MIC (Escherichia coli 14828) [µg/mL]	MIC (Klebsiella oxytoca 14153) [µg/mL]	MIC (Klebsiella oxytoca 12391) [µg/mL]	MIC (Klebsiella oxytoca 14151) [µg/mL]	MIC (Klebsiella oxytoca 6777) [µg/mL]	Compound	MIC [1] [µg/mL]	other results
0.5 (≈ 0.748 µM)	0.25 (≈ 0.374 µM)	> 8	0.25 (≈ 0.374 µM)	> 8	0.5 (≈ 0.748 µM)	0.25 (≈ 0.374 µM)	0.5 (≈ 0.748 µM)	0.06 (≈ 0.0897 µM)	2 (≈ 2.99 µM)	1 (≈ 1.5 µM)	0.06 (≈ 0.0897 µM)	0.25 (≈ 0.374 µM)	> 8	0.5 (≈ 0.748 µM)	1 (≈ 1.5 µM)	1 (≈ 1.5 µM)	0.5 (≈ 0.748 µM)	0.5 (≈ 0.748 µM)	CC1(C)[C@H](NC(=O)/C(=N\O[C@@H](COc2ccc(C(=N)N[C@@H]3CCCNC3)cc2)C(=O)O)c2csc(N)n2)C(=O)N1OS(=O)(=O)O [AIC499, reference compound]	1 (≈ 1.5 µM)	MIC (E. ae 14186): 1 µg/mL (≈ 1.5 µM)
0.125 (≈ 0.169 µM)	0.06 (≈ 0.081 µM)	2 (≈ 2.7 µM)	0.06 (≈ 0.081 µM)	4 (≈ 5.4 µM)	0.06 (≈ 0.081 µM)	0.03 (≈ 0.0405 µM)	0.06 (≈ 0.081 µM)	0.03 (≈ 0.0405 µM)	0.5 (≈ 0.675 µM)	0.25 (≈ 0.337 µM)	< 0.015	0.06 (≈ 0.081 µM)	4 (≈ 5.4 µM)	0.06 (≈ 0.081 µM)	0.125 (≈ 0.169 µM)	0.125 (≈ 0.169 µM)	0.125 (≈ 0.169 µM)	0.125 (≈ 0.169 µM)	CC1(C)[C@H](NC(=O)/C(=N\O[C@@H](COc2ccc3c(c2)CN(C(=N)N(CCCN)CCCN)C3)C(=O)O)c2csc(N)n2)C(=O)N1OS(=O)(=O)O [Compound 32]	0.5 (≈ 0.675 µM)	MIC (E. ae 14186): 0.125 µg/mL (≈ 0.169 µM)
0.125 (≈ 0.176 µM)	0.125 (≈ 0.176 µM)	> 8	0.125 (≈ 0.176 µM)	> 8	0.125 (≈ 0.176 µM)	0.06 (≈ 0.0845 µM)	0.125 (≈ 0.176 µM)	0.06 (≈ 0.0845 µM)	1 (≈ 1.41 µM)	0.5 (≈ 0.704 µM)	0.03 (≈ 0.0423 µM)	0.06 (≈ 0.0845 µM)	4 (≈ 5.64 µM)	0.125 (≈ 0.176 µM)	0.25 (≈ 0.352 µM)	0.25 (≈ 0.352 µM)	0.25 (≈ 0.352 µM)	0.25 (≈ 0.352 µM)	CC1(C)[C@H](NC(=O)/C(=N\O[C@@H](COc2ccc3c(c2)CN(C(=N)N[C@@H]2CCCNC2)C3)C(=O)O)c2csc(N)n2)C(=O)N1OS(=O)(=O)O [Compound 41]	0.5 (≈ 0.704 µM)	MIC (E. ae 14186): 0.25 µg/mL (≈ 0.352 µM)
